In assay [1] the test system is Methicillin-resistant Staphylococcus aureus (MRSA) isolates. Briefly: MIC by broth microdilution (CLSI) against CAN-ICU MRSA isolates. The following applies: Staphylococcus aureus. Type of assay: cell-based. An excerpt:
MRSA isolates (n=193) were obtained as part of the Canadian National Intensive Care Unit (CAN-ICU) Study. 19 medical centers from all regions of Canada with active ICUs participated in the CAN-ICU study included. They were requested to only obtain “clinically significant” specimens from patients with a presumed infectious disease. Surveillance swabs, eye, ear, nose and throat swabs were excluded. Anaerobic organisms and fungal organisms were also excluded.
From September 2005-June 2006 (inclusive), each center collected a maximum of 300 consecutive pathogens isolated from blood, urine, tissue/wound, and respiratory specimens (one pathogen per cultured site per patient) of ICU patients. These isolates were shipped to the reference laboratory (Health Sciences Centre, Winnipeg, Canada) on Amies charcoal swabs, subcultured in appropriate media, and stocked in skim milk at −80° C.
All isolates underwent mecA PCR, as well as molecular characterization (including PVL analysis and fingerprinting), as previously described, to assess whether they were community-associated or healthcare-associated (Christianson et al., J Clin Microbiol. 2007, 45 (6): 1904-11; Mulvey et al., J Clin. Microbiol. 2001, 39(10): 3481-5; Mulvey et al., Emerg Infect Dis. 2005,11(6): 844-50; Oliveira et al., Antimicrob Agents Chemother. 2002, 46(7): 2155-61). The isolates were also subtyped using pulsed-field gel electrophoresis (PFGE) following the Canadian standardized protocol as previously described (Mulvey et al., J Clin Microbiol. 2001, 39(10): 3481-5). Their PFGE fingerprints thus obtained were analyzed with BioNumerics v3.5 (Applied Maths St. Marten-Latem, Belgium) using a position tolerance of 1.0 and an optimization of 1.0. Strain relatedness was determined as previously described (Tenover et al., 1995). The fingerprints of the isolates were compared to the national MRSA fingerprint database and were grouped into one of 10 Canadian epidemic MRSA (CMRSA-1, CMRSA-2, etc) as previously described (Mulvey et al., Emerg Infect Dis. 2005,11(6):844-50).
Compound 1 and other antibiotics were tested for their inhibitory activity against the MRSA isolates using the broth microdilution guidelines as stipulated by the Clinical and Laboratory Standards Institute.

The test system of assay [2] is Staphylococcus aureus strains (MRSA, hVISA, VISA, VRSA, quinolone-resistant MRSA). The experiment in a line: MIC by agar dilution against Staphylococcal strains (MRSA, hVISA, VISA, VRSA, quinolone-resistant MRSA). The following applies: Staphylococcus aureus. Format: cell-based. The method, then: Compound 1 was tested for its inhibitory effect against 26 Methicillin-resistant Staphylococcus aureus (MRSA) strains, 2 hetero-Vancomycin intermediate Staphylococcus aureus (hVISA) strains, 24 Vancomycin-intermediate Staphylococcus aureus (VISA) strains, 5 Vancomycin-resistant Staphylococcus aureus (VRSA) strains, and 31 quinolone-resistant Vancomycin-susceptibale MRSA strains with defined mutations in QRDR. These mutations were determined by sequencing analysis of the QRDR (gyrA, gyrB, grlA, and grlB). Efflux testing was performed by the reserpine method (Brenwald, et al., Antimicrob. Agents Chemother. 1998, 42: 2032-2035).

Assay [3] concerns H. pylori isolates. The experiment in a line: MIC by agar dilution against 200 H. pylori isolates (Taiwan). Format: cell-based, Helicobacter pylori. The following applies: 200 H. pylori isolates; resistance: amoxicillin MICs≧0.5, clarithromycin ≧1, metronidazole ≧8, ciprofloxacin ≧1, levofloxacin ≧1 μg/mL. Here is the method: MICs were determined using the agar dilution methods recommended by the Clinical and Laboratory Standards Institute (CLSI-M100-S18).
A general note: In agar dilution the substance is mixed into plates at graded concentrations.

Where [4] appears, read: MRSA (n = 193), read-out: MIC50.
Setting [5] is: MRSA (n = 193), read-out: MIC90.
[6] abbreviates: MRSA (n = 193), read-out: MIC Range Max.
Where [7] appears, read: MRSA (n = 193), read-out: MIC Range Min.
The mark [8] stands for this setting: hVISA(2) + VISA (24) + VRSA (5).
The mark [9] stands for this setting: read-out: MIC Range, Quinolone-resistant MRSA (31).
Where [10] appears, read: read-out: MIC Range, hVISA(2) + VISA (24) + VRSA (5).

Structures are written as SMILES. Values after ≈ are worked out from the molar mass of the structure shown. Like-named read-outs stand apart in the source and are kept apart here. Where only a bound is given, the exact number is not on record here.

By MIC50 is commonly meant an inhibitory concentration at the 50% level, which refers to growth in some studies and to a panel of isolates in others. By MIC90 is commonly meant the lowest concentration that inhibits either 90% of growth or 90% of the strains tested, depending on the study. What is called MIC is the lowest concentration found to suppress growth. Consider `C[C@@H](O)[C@H]1C(=O)N2C(C(=O)O)=C(S[C@@H]3CN[C@H](C(=O)N(C)C)C3)[C@H](C)[C@H]12` [Meropenem], for which the MIC50 in assay [1] (setting [4]) was 16 µg/mL (≈ 41.7 µM). Besides, in assay [1] (setting [5]), the MIC90 is more than 32 µg/mL. Besides, the MIC is more than 32 µg/mL in assay [1] (setting [6]) and 0.25 µg/mL (≈ 0.652 µM) in assay [1] (setting [7]).

Consider `CCCCCCCCCC(=O)N[C@@H](Cc1c[nH]c2ccccc12)C(=O)N[C@H](CC(N)=O)C(=O)N[C@@H](CC(=O)O)C(=O)N[C@@H]1C(=O)NCC(=O)N[C@@H](CCCN)C(=O)N[C@@H](CC(=O)O)C(=O)N[C@H](C)C(=O)N[C@@H](CC(=O)O)C(=O)NCC(=O)N[C@H](CO)C(=O)N[C@@H]([C@H](C)CC(=O)O)C(=O)N[C@@H](CC(=O)c2ccccc2N)C(=O)O[C@@H]1C` [Daptomycin], for which the MIC50 in assay [1] (setting [4]) stood at 0.25 µg/mL (≈ 0.154 µM); in assay [2] (MRSA (26)), 1 µg/mL (≈ 0.617 µM); in assay [2] (Quinolone-resistant MRSA (31)), 0.25 µg/mL (≈ 0.154 µM); in assay [2] (setting [8]) it was 1 µg/mL. Besides, the MIC90 was 0.5 µg/mL (≈ 0.309 µM) in assay [1] (setting [5]), 1 µg/mL (≈ 0.617 µM) in assay [2] (MRSA (26)), 0.25 µg/mL (≈ 0.154 µM) in assay [2] (Quinolone-resistant MRSA (31)) and 2 µg/mL in assay [2] (setting [8]). Also, the MIC was 0.5 µg/mL (≈ 0.309 µM) in assay [1] (setting [6]); 0.25 µg/mL (≈ 0.154 µM) in assay [1] (setting [7]); 0.5 to 1 µg/mL (≈ 0.309 to 0.617 µM) in assay [2] (read-out: MIC Range, MRSA (26)); 0.12 to 1 µg/mL (≈ 0.074 to 0.617 µM) in assay [2] (setting [9]); 0.12 to 4 µg/mL in assay [2] (setting [10]).

Regarding `Cc1ncc([N+](=O)[O-])n1CCO` [metronidazole], the “share of isolates resistant” value in assay [3] came to 29%.

`CN[C@H](CC(C)C)C(=O)N[C@H]1C(=O)N[C@@H](CC(N)=O)C(=O)N[C@H]2C(=O)N[C@H]3C(=O)N[C@H](C(=O)N[C@H](C(=O)O)c4cc(O)cc(O)c4-c4cc3ccc4O)[C@H](O)c3ccc(c(Cl)c3)Oc3cc2cc(c3O[C@@H]2O[C@H](CO)[C@@H](O)[C@H](O)[C@H]2O[C@H]2C[C@](C)(N)[C@H](O)[C@H](C)O2)Oc2ccc(cc2Cl)[C@H]1O` [Vancomycin]: the MIC50 stood at 1 µg/mL (≈ 0.69 µM) in assay [1] (MRSA); 1 µg/mL (≈ 0.69 µM) in assay [1] (MRSA / USA100); 0.5 µg/mL (≈ 0.345 µM) in assay [1] (MRSA / USA200); 0.5 µg/mL (≈ 0.345 µM) in assay [1] (MRSA / USA300); 1 µg/mL (≈ 0.69 µM) in assay [1] (MRSA / USA400); 1 µg/mL (≈ 0.69 µM) in assay [1] (MRSA / USA600). The MIC50 in assay [2] (MRSA (26)) worked out at 1 µg/mL (≈ 0.69 µM); in assay [2] (Quinolone-resistant MRSA (31)) it was 1 µg/mL (≈ 0.69 µM); in assay [2] (setting [8]), 4 µg/mL. Besides, the MIC90 in assay [1] (MRSA) amounted to 1 µg/mL (≈ 0.69 µM); in assay [1] (MRSA / USA100), 1 µg/mL (≈ 0.69 µM); in assay [1] (MRSA / USA200), 0.5 µg/mL (≈ 0.345 µM); in assay [1] (MRSA / USA300) it was 0.5 µg/mL (≈ 0.345 µM); in assay [1] (MRSA / USA400), 1 µg/mL (≈ 0.69 µM); in assay [1] (MRSA / USA600) it was 1 µg/mL (≈ 0.69 µM). The MIC90 was 1 µg/mL (≈ 0.69 µM) in assay [2] (MRSA (26)), 1 µg/mL (≈ 0.69 µM) in assay [2] (Quinolone-resistant MRSA (31)) and 32 µg/mL in assay [2] (setting [8]). In addition, the MIC is 1 µg/mL (≈ 0.69 µM) in assay [1] (MRSA, read-out: MIC Range Max); 0.5 µg/mL (≈ 0.345 µM) in assay [1] (MRSA, read-out: MIC Range Min); 0.5 to 1 µg/mL (≈ 0.345 to 0.69 µM) in assay [2] (read-out: MIC Range, MRSA (26)); 0.5 to 2 µg/mL (≈ 0.345 to 1.38 µM) in assay [2] (setting [9]).

As for `CCC[C@@H]1C[C@@H](C(=O)N[C@@H]([C@H]2O[C@H](SC)[C@H](O)[C@@H](O)[C@H]2O)[C@H](C)Cl)N(C)C1` [Clindamycin], in assay [1] (setting [4]), the MIC50 is more than 8 µg/mL. For the same molecule, the MIC90 in assay [1] (setting [5]) is more than 8 µg/mL. The MIC in assay [1] (setting [6]) is more than 8 µg/mL; in assay [1] (setting [7]), not above 0.12 µg/mL.

Consider `CC(=O)NC[C@H]1CN(c2ccc(N3CCOCC3)c(F)c2)C(=O)O1` [Linezolid], for which the MIC50 was 2 µg/mL (≈ 5.93 µM) in assay [1] (MRSA / USA100, USA 100/800 (HA-MRSA), read-out: MIC50); 2 µg/mL (≈ 5.93 µM) in assay [1] (MRSA / USA200, USA 200 (HA-MRSA), read-out: MIC50); 1 µg/mL (≈ 2.96 µM) in assay [1] (MRSA / USA300, USA 300 (CA-MRSA), read-out: MIC50); 2 µg/mL (≈ 5.93 µM) in assay [1] (MRSA / USA400, USA 400 (CA-MRSA), read-out: MIC50); 2 µg/mL (≈ 5.93 µM) in assay [1] (MRSA / USA600, USA 600 (HA-MRSA), read-out: MIC50); 2 µg/mL (≈ 5.93 µM) in assay [1] (setting [4]). For the same molecule, the MIC50 in assay [2] (MRSA (26)) worked out at 4 µg/mL (≈ 11.9 µM); in assay [2] (Quinolone-resistant MRSA (31)), 1 µg/mL (≈ 2.96 µM); in assay [2] (setting [8]), 1 µg/mL. Further, the MIC90 is 2 µg/mL (≈ 5.93 µM) in assay [1] (MRSA / USA100, USA 100/800 (HA-MRSA), read-out: MIC90); 2 µg/mL (≈ 5.93 µM) in assay [1] (MRSA / USA200, USA 200 (HA-MRSA), read-out: MIC90); 2 µg/mL (≈ 5.93 µM) in assay [1] (MRSA / USA300, USA 300 (CA-MRSA), read-out: MIC90); 2 µg/mL (≈ 5.93 µM) in assay [1] (MRSA / USA400, USA 400 (CA-MRSA), read-out: MIC90); 2 µg/mL (≈ 5.93 µM) in assay [1] (MRSA / USA600, USA 600 (HA-MRSA), read-out: MIC90); 2 µg/mL (≈ 5.93 µM) in assay [1] (setting [5]). In addition, the values for the MIC90 in assay [2] (MRSA (26)), in assay [2] (Quinolone-resistant MRSA (31)) and in assay [2] (setting [8]) were 4 µg/mL (≈ 11.9 µM), 1 µg/mL (≈ 2.96 µM) and 1 µg/mL, respectively. Moreover, the MIC was 4 µg/mL (≈ 11.9 µM) in assay [1] (setting [6]); 0.5 µg/mL (≈ 1.48 µM) in assay [1] (setting [7]); 2 to 4 µg/mL (≈ 5.93 to 11.9 µM) in assay [2] (read-out: MIC Range, MRSA (26)); 0.25 to 1 µg/mL (≈ 0.741 to 2.96 µM) in assay [2] (setting [9]); 0.5 to 2 µg/mL in assay [2] (setting [10]).

The values above are taken from patent US8211909B2, “Treatment of antibiotic-resistant bacteria infection” (TaiGen Biotechnology Co., Ltd., priority 2008, dated 2012).
